Laboratory results from EP1733758A1, “Methods for administration of a farnesyl dibenzodiazepinone” (Ecopia Biosciences Inc., priority 2005, dated 2006).
Where “and” joins values, the source holds several entries; their conditions need not be identical. Equal entries are not always repeated.

Tests used:
[1] = Acute toxicity of 24-hour CIV administration in monkeys; format: in vivo; conditions: infusion rate 2 mL/kg/hour
[2] = Pharmacokinetics of 14-day continuous intravenous infusion in monkeys; format: in vivo, Cynomolgus monkeys; conditions: for Css / mean steady-state plasma concentration / T½z: 14-day CIV; for Css: average between 30h and 14 days; for Css / T½z: mean; for mean steady-state plasma concentration: between 30 h and 14 days; for T½z: calculated at the end of treatment; for plasma concentration: CIV 30 mg/kg/day
Experimental: Cynomolgus monkeys received continuous IV infusion over 14 days of Formula I at 5 mg/kg/day, 15 mg/kg/day, or 30 mg/kg/day. The drug was infused intravenously (24 hours/day) into the femoral vein at a dose rate of 2 ml/kg/hour for 14 consecutive days. Blood samples were removed from each monkey on Days 1, 2, 6, 10, and 15 of the treatment period. Monkeys were bled by venipuncture and samples were collected into tubes containing K2EDTA. On Day 1, samples were collected at 2, 6, and 12 hours after initiation of treatment. Additional samples were collected at 30 hours after the start of infusion (Day 2). On Days 6 and 10, samples were collected at approximately 6 hours after the bag changes. At the end of the 14 days of infusion, on Day 15, samples were collected at 1 hour prior to cessation of dose administration, and at 5 min, 30 min, 1 h, 2 h, 4 h, 8 h, and 24 h following cessation of dose administration.

[3] = Pharmacokinetics and tissue distribution after bolus IV, IP, SC and PO administration in mice; format: in vivo, female Crl: CD1 mice; conditions: daily bolus administrations of 30 mg/kg (SC) or 20 mg/kg (IP)
[4] = Toxicity of 14-day continuous intravenous infusion in rats; format: in vivo; conditions: 14-day infusion, all treated and control groups, toxicity was due to the vehicle
Experimental: Sprague-Dawley rats received an intravenous continuous infusion over 14 days of Formula I at 25 mg/kg/day, 50 mg/kg/day, or 75 mg/kg/day at a rate of 2 mL/kg/h for 14 consecutive days (same formulation as in Example 7). Blood was collected from the jugular vein in tubes containing K2 EDTA from 3 rats/sex/group at the following time points: 2, 6, and 12 hours after the start of dosing on Day 1, on Day 2 at 6 hours (approximately 30 hours after the start of dosing), on Days 6 and 10 at 6 hours, and on Day 15, 1 hour prior the end of dosing, and then at 5 min, 15 min, 30 min, 1 h, and 2 h after the end of dosing.
The toxicity was due to the vehicle and was attributed to smaller size of infusion vessels, and concurrent catheter tract infection.

[5] = test system: human breast tumor (MDA-MB-231) xenografts; test: Human MDA-MB-231 breast tumor xenograft efficacy; format: in vivo, HRLN female nude mice; conditions: for T/C / %T/C: day 21; for %T/C: P < 0.0001
Experimental: The antitumor activity of the compound of Formula I was further tested in a human MD-MB-231 breast cancer model in mice. HRLN female nude mice (8 weeks of age) were treated with 5x10^6 MDA-MB-231 tumor cells (SC) in the right flank. Animals were randomized (ten per group) when tumors reach an average size of 80 - 120 mg and treatment began according to the table below. For these studies, the compound of Formula I was formulated in 5% ethanol, 5% PEG-400, 15% Polysorbate 80, and 75% of water containing 5% dextrose.
Tumor measurements were taken twice weekly using calipers and were converted to tumor mass (in milligrams) using the formula: with^2 (mm) x length (mm) x 0.52. Body weights were also recorded twice weekly. Statistical analysis was done using the unpaired two-tailed Student's t test.

[6] = test system: orthotopic C6 glioma tumor xenograft; test: Orthotopic C6 glioma tumor xenograft survival model; format: in vivo, CD1 female nude mice; conditions: IP 30 mg/kg days 1, 2 and 3, then 10 mg/kg days 4 and 5 and 9 to 38
Experimental: The antitumor activity of the compound of formula I was further tested in a orthotopic C6 glioma tumor xenograft model in mice. CD1 female nude mice (6 weeks of age) were grafted intra-cerebrally with 5 x 10^4 (volume of 10 microliters) rat C6 glioma cells (day 0). Treatment was initiated 24 h after tumor cell implantation. The compound of Formula I was administered intraperitoneally (IP) at a concentration of 30 mg/kg (volume of 10 mL/Kg) on days 1, 2 and 3 followed by IP injections of 10 mg/kg on days 4 and 5 and 9 to 38. Vehicle (30% PEG; 30% PG; 40% H2O was injected in a volume of 10 mL/kg using the same route and schedule.
Body weight of animals was monitored every other day and the effect of the compound of Formula I on growth of intracerebral glioma tumors was evaluated by mouse survival and percentage increase in life span (%ILS, expressed as mean survival time of treated animals minus the mean survival time of the control group). By criteria established by the National Cancer Institute, increases in life span exceeding 25% indicate that the drug has significant antitumor activity (Plowman et al. (1997) Human tumor xenografts models in NCI drug development. In: Theicher BA (ed) Anticancer drug development guide: prescreening, clinical trials and approval. Human press, Totowa, pp 101-125). Statistical analysis of mouse survival was performed by Kaplan-Mayer analysis. […]

[7] = Maximum tolerated dose and tolerability of bolus administration in mice; format: in vivo; conditions: for MTD: mouse, in vivo

SMILES: CC(C)=CCC/C(C)=C/CC/C(C)=C/CN1C(=O)c2cccc(O)c2Nc2c(O)cc(O)cc21 [Formula I, 10-farnesyl-4,6,8-trihydroxy-dibenzodiazepin-11-one]
- acute toxicity / tolerability ([1]; 35 mg/kg): well tolerated
- acute toxicity / tolerability ([1]; 70 mg/kg): well tolerated
- AUC increase between the groups ([2]; 15 mg/kg/day group versus 5 mg/kg/day group): 3.4 fold
- AUC higher than that of the middle dose group ([2]; 30 mg/kg/day group versus 15 mg/kg/day group): 4.7 fold
- Css ([2]; 5 mg/kg/day): 358 ng/mL and 358 ^b ng/mL
- mean steady-state plasma concentration ([2]; 5 mg/kg/day): ~0.8 µM
- T½z ([2]; 5 mg/kg/day): 12 h
- Css ([2]; 15 mg/kg/day): 1,173 ng/mL
- mean steady-state plasma concentration ([2]; 15 mg/kg/day): ~2.5 µM
- T½z ([2]; 15 mg/kg/day): 8.3 h
- Css ([2]; 30 mg/kg/day): 6,283 ng/mL
- T½z ([2]; 30 mg/kg/day): 8.1 h
- plasma concentration ([2]; Day 1): 2,814 ng/mL
- plasma concentration ([2]; Day 6): 4,354 ng/mL
- plasma concentration ([2]; Day 10): 6,855 ng/mL
- plasma concentration ([2]; day 15): 8,561 ng/mL
- sustained plasma concentrations [3]: 1 to 2 µM
- infusion site findings [4]: necrotization and inflammatory lesions at the site of infusion
- T/C ([5]; IP 30 mg/kg every three days x 7, P = 0.0007): 58%
- %T/C ([5]; SC 20 mg/kg everyday for 21 days): 40%
- %T/C ([5]; SC 30 mg/kg days 1 to 5, 8 to 12): 35%
- T/C ([5]; SC 50 mg/kg every three days x 7, P= 0.0019): 68%
- antitumor activity ([5]; bolus intravenous treatment (100 mg/kg, 5/2/5/2/5)): did not result in activity
- increase in life span [6]: 29%
- increase survival [6]: 7 days
- tolerability finding ([7]; IP bolus dosing): some intestinal occlusion
- tolerability finding ([7]; SC bolus dosing): swelling and thickening of the skin
- MTD ([7]; IP bolus): 20 mg/kg
- MTD ([7]; IV bolus): 200 mg/kg
- MTD ([7]; SC bolus): 30 mg/kg
